Laboratory results reported in a flash point compilation (Sun et al. 2020).
Where a name gives a salt, the structure may show the parent alone.

| flash point [°C] | Structure (SMILES) |
| --- | --- |
| 21.5 | CCC(C)(C)C(C)(C)C [Pentane, 2,2,3,3-tetramethyl-] |
| 48.0 | CCCC(=O)CCC [4-HEPTANONE] |
| 0.6 | COCC(C)OC (stereo not drawn) [1,2-DIMETHOXYPROPANE] |
| 143 | CCCCCCCCCCCCCCO [1-TETRADECANOL] |
| 150.0 | O=C(O)CCCCCC(=O)O [Pimelic acid] |
| 58.0 | CCC(C)CCO (stereo not drawn) [1-Pentanol, 3-methyl-] |
| -55.9 | C=CC(C)C [1-Butene, 3-methyl-] |
| 49.8 | CCCCCCCCCC [Decane] |
| 215 | O=C(O)CCCCCC(=O)O [PIMELIC acid] |
| 11.2 | C[C@H]1CC[C@@H](C)CC1 [Cyclohexane, 1,4-dimethyl-, cis-] |
| 37.8 | CC(C)CCCCC(C)C [Octane, 2,7-dimethyl-] |
| 19.0 | CCCCCC(C)(C)C [Heptane, 2,2-dimethyl-] |
| 73.0 | Cc1cc(C)c(C)cc1C [1,2,4,5-Tetramethylbenzene] |
| 28 | CCC(C)CC(C)(C)CC (stereo not drawn) [3,3,5-TRIMETHYLHEPTANE] |
| 168 | CCCCCCCCCCCCCCCCCCC [Nonadecane] |
| 56 | CCc1cccc(CC)c1 [1,3-Diethylbenzene] |
| 134.0 | CCCCCCCCCCCCCCCC [Hexadecane] |
| 2.0 | CC(C)CCC(C)C [Hexane, 2,5-dimethyl-] |
| -6.0 | C=CC(C)CCC (stereo not drawn) [1-Hexene, 3-methyl-] |
| 64.0 | CCCCCCCC(C)=O [2-NONANONE] |
| 34.0 | CCCC(=O)CCC [4-Heptanone] |

| flash point [°C] | Structure (SMILES) |
| --- | --- |
| 8 | C=CCCCCCC [1-OCTENE] |
| 68.0 | Cc1ccc(C)c(C)c1C [1,2,3,4-TETRAMETHYLBENZENE] |
| 6.0 | CCCCC(C)CC (stereo not drawn) [Heptane, 3-methyl-] |
| 55 | Cc1cc(C)c(C)cc1C [1,2,4,5-TETRAMETHYLBENZENE] |
| 11.0 | CCCCCCl [Pentane, 1-chloro-] |
| -1.0 | CC(=O)C(C)C [3-Methyl-2-butanone] |
| 99.0 | CCCCCCCCCOC(C)=O [NONYL ACETATE] |
| 148.0 | CCCCCCCCCCCCCCO [1-Tetradecanol] |
| 59.0 | CCCCCC(C)O (stereo not drawn) [2-Heptanol] |
| 7.0 | CCC(=O)CC [3-Pentanone] |
| 72.4 | CCCCCCCC(C)=O [2-Nonanone] |
| -6.0 | C=C(C)CCCC [1-Hexene, 2-methyl-] |
| 11.5 | C=CCCCCCC [1-Octene] |
| 26.0 | CCCCCCC(C)C [Octane, 2-methyl-] |
| 66.0 | CCCCCc1ccccc1 [Benzene, pentyl-] |
| 21 | CCC(CC)(CC)CC [Pentane, 3,3-diethyl-] |
| 23.0 | CCC(C)O (stereo not drawn) [sec-Butanol] |
| 104.0 | CCCCCCCCCCO [Decyl alcohol] |
| 57 | CCC(CC)CO [2-ETHYL-1-BUTANOL] |
| 83.0 | CCCCCCc1ccccc1 [1-Phenylhexane] |
| 26.0 | C=CCCCCCCC [1-Nonene] |

| Structure (SMILES) | flash point [°C] |
| --- | --- |
| c1ccc(-c2ccc(-c3ccccc3)cc2)cc1 [p-Terphenyl] | 207 |
| C=CC(=O)OCC(C)C [Isobutyl acrylate] | 31.2 |
| C=CCOC(C)=O [ALLYL ACETATE] | 22.2 |
| Cc1cccc(O)c1 [Phenol, 3-methyl-] | 86.0 |
| CCCCOC(C)=O [Butyl acetate] | 25.0 |
| CCCCCC [n-HEXANE] | -21.6 |
| CCCCOCC(C)O (stereo not drawn) [1-Butoxy-2-propanol] | 59.0 |

Remark: another data set of the same source

| Structure (SMILES) | flash point [°C] |
| --- | --- |
| CC1COC(=O)O1 (stereo not drawn) [Propylene carbonate] | 135.00 |
| CC(=O)Oc1ccccc1 [Phenyl acetate] | 80.00 |
| Cc1ccc([N+](=O)[O-])cc1 [p-Nitrotoluene] | 106.00 |
| CC(=O)C=C(C)C [Mesityl oxide] | 31.00 |
| COC [Methyl ether] | -41.00 |
| N#CCCCCC#N [Adiponitrile] | 93.00 |
| CC[N+](=O)[O-] [Nitroethane] | 38.00 |
| CC(=O)OC(C)C [iso-Propyl acetate] | 4.00 |
| C=COC [Methyl vinyl ether] | -51.00 |
| CCCCN(CCCC)CCCC [Tri-n-butyl amine] | 86.00 |
| CCCCCCCCOC(=O)c1ccccc1C(=O)OCCCCCCCC [Di-n-Octyl phthalate] | 219.00 |
| Nc1ccc(N)cc1 [p-Phenylenediamine] | 156.00 |
| CC(=O)OCCC(C)C [iso-Amyl acetate] | 23.00 |
| FC(F)=C(F)Cl [Chlorotrifluoroethylene] | -27.00 |
| CC(=O)OCc1ccccc1 [Benzyl acetate] | 102.00 |
| CCCCCCO [n-Hexanol] | 60.00 |
| CCCCOC(C)=O [n-Butyl acetate] | 27.00 |
| OCc1ccccc1 [Benzyl alcohol] | 101.00 |
| CCOC(C)=O [Ethyl acetate] | -4.40 |
| O=[N+]([O-])c1ccccc1 [Nitrobenzene] | 88.00 |
| CC(C)Cc1ccccc1 [iso-Butyl benzene] | 52.00 |
| CCCC(=O)OCC [Ethyl butyrate] | 26.00 |
| CCCC=C(C=O)CC [2-Ethyl-3-propyl acrolein] | 68.00 |
| CCCN(CCC)CCC [Tripropylamine] | 41.00 |
| CCC(C=O)CC [2-Ethyl butyraldehyde] | 21.00 |
| C1CCNCC1 [Piperidine] | 16.00 |
| CN(C)C=O [Dimethylformamide] | 58.00 |

| Structure (SMILES) | flash point [°C] |
| --- | --- |
| O=C1c2ccccc2C(=O)c2ccccc21 [Anthraquinone] | 185.00 |
| O=C1C=CC(=O)O1 [Maleic anhydride] | 102.00 |
| C=C(C)C1CC=C(C)CC1 (stereo not drawn) [p-Mentha-1,8-diene] | 45.00 |
| SCc1ccccc1 [Benzyl mercaptan] | 70.00 |
| Oc1ccccc1-c1ccccc1 [o-Phenyl phenol] | 124.00 |
| C=Cc1ccccc1 [Styrene] | 31.00 |
| CCN1CCOCC1 [N-Ethylmorpholine] | 32.00 |
| CCCCCCCCCc1ccccc1O [Nonyl phenol] | 141.00 |
| CC12CCC(CC1=O)C2(C)C (stereo not drawn) [Camphor] | 66.00 |
| C=CC(=O)OCC [Ethyl acrylate] | 16.00 |
| NC1CCCCC1 [Cyclohexylamine] | 32.00 |
| C=C(C)OC(C)=O [iso-Propenyl acetate] | 16.00 |
| CCCC(=O)OC(=O)CCC [n-Butyric anhydride] | 88.00 |
| O=C(OCc1ccccc1)c1ccccc1 [Benzyl benzoate] | 148.00 |
| N#CCCC#N [Succinonitrile] | 132.00 |
| CC(=O)OC(C)=O [Acetic anhydride] | 54.00 |
| COC(C)=O [Methyl acetate] | -9.00 |
| CC(C)CCOC=O [iso-Amyl formate] | 26.00 |
| CCNc1ccccc1 [n-Ethyl aniline] | 85.00 |
| C1CCCC1 [Cyclopentane] | -7.00 |
| O=C(O)c1ccccc1 [Benzoic acid] | 121.00 |
| O=[N+]([O-])c1ccccc1-c1ccccc1 [o-Nitrobiphenyl] | 143.00 |
| C#CCO [Propargyl alcohol] | 36.00 |
| CCCCCC [Hexane] | -22.00 |
| COC(=O)c1ccccc1O [Methyl salicylate] | 101.00 |
| Clc1c(Cl)c(Cl)c(Cl)c(Cl)c1Cl [Hexachlorobenzene] | 242.00 |
| C=COCCCC [Butyl vinyl ether] | -9.00 |

| Structure (SMILES) | flash point [°C] |
| --- | --- |
| Cc1cccc(O)c1 [m-Cresol] | 94.00 |
| CS(C)=O [Dimethyl sulphoxide] | 95.00 |
| CC=O [Acetaldehyde] | -38.00 |
| CCCC(=O)O [n-Butyric acid] | 66.00 |
| C=COC(C)=O [Vinyl acetate] | -8.00 |
| O=C(O)CCCCC(=O)O [Adipic acid] | 191.00 |
| OCc1ccco1 [Furfuryl alcohol] | 75.00 |
| ClCC(Cl)CCl [1,2,3-Trichloropropane] | 82.00 |
| Cc1ccc(C(C)C)cc1 [p-Cymene] | 47.00 |
| c1ccc(Oc2ccccc2)cc1 [Phenyl ether] | 96.00 |
| O=Cc1ccccc1 [Benzaldehyde] | 64.00 |
| Oc1ccc(Cl)cc1 [p-Chlorophenol] | 121.00 |
| C1CCC(C2CCCCC2)CC1 [Bicyclohexyl] | 74.00 |
| O=[N+]([O-])c1cccc2ccccc12 [alpha-Nitronaphthalene] | 164.00 |
| CCCCCl [n-Butyl chloride] | 7.00 |
| Cc1ccccc1O [o-Cresol] | 81.00 |
| CCCC#N [n-Butyronitrile] | 26.00 |
| O=CC=Cc1ccccc1 [Cinnamaldehyde] | 49.00 |
| CC(C)[N+](=O)[O-] [2-Nitropropane] | 39.00 |
| ClCCCCl [1,3-Dichloropropane] | 35.00 |
| CC(C)=O [Acetone] | -18.00 |
| ClCc1ccccc1 [Benzyl chloride] | 67.00 |
| OCCOCCOCCO [Triethylene glycol] | 177.00 |
| CC(=O)O [Acetic acid] | 43.00 |
| CC(C)=CC(C)(C)C [2,4,4-Trimethyl-2-pentene] | 2.00 |
